US20250230147A1, “LACTAMS AS CBL-B INHIBITORS” (Genentech, Inc., priority 2021, published 2025)
pIC50: −log10 of the molar value. Where a name gives a salt, the structure may show the parent alone. One block for each molecule: values may come before it.

Experiments:
Cbl-b = Cbl-b (Homo sapiens (Human), UniProt Q13191); experiment: Cbl-b LCK Ub TR-FRET assay (Cbl-b Lck HTRF); format: biochemical
Experimental: Compounds were 3-fold serially diluted in DMSO in a 384-well polypropylene plate (#P-05525-BC; Labcyte) to generate a source plate with 10 concentrations of each compound, top concentration=2 mM. 80 nL of DMSO or compounds were transferred to each well of a black 384-well ProxiPlate (#6008260; PerkinElmer) using a Labcyte Echo. 1×assay buffer (50 mM HEPES pH7.0, 100 mM NaCl, 0.01% BSA, 0.01% Triton-X100, 1 mM DTT), 2×enzyme solution (16 nM Biotin-Cbl-b or 12 nM Biotin-c-Cbl in 1× assay buffer), 2×kinase mixture (120 nM His-LCK, 1 mM ATP, 10 mM MgCl2 in assay buffer) and 2.33×detection mixture (4.66×solution 1: 163 nM Anti-HA-D2 antibody (#610HADAB; PerkinElmer), 27.96 nM Streptavidin-EU (#AD0062; PerkinElmer), 1.398 mM EDTA in 1×assay buffer+4.66×solution 2: 2.796 μM UBE2D2/Methylated-HA-Ubiquitin thioester adduct (BostonBiochem) in 1×assay buffer) were prepared. 4 μL of 2× enzyme solution was added to each well containing compound, briefly centrifuged to mix, and incubated for 60 min at room temperature. 4 μL of 2× kinase mixture was added, briefly centrifuged to mix, and incubated for 90 min. at room temperature. 6 μL of detection mixture was added to all wells and briefly centrifuged before incubating for 20 min at room temperature. Plates were read for TR-FRET using an Envision at excitation 340 nm, emission at 615 and 665 nm, 4 flashes per well. IC50 was generated using no LCK as the low control and DMSO as the high control.
Cbl-b Lck HTRF data in Table 7 is measured according to Example 76 herein; C-cbl Lck HTRF data is measured according to Example 76 herein.

c-Cbl = c-Cbl (Homo sapiens (Human), UniProt P22681); experiment: C-Cbl LCK Ub TR-FRET assay (c-cbl Lck HTRF); format: biochemical; conditions: for (fold-selectivity): C-cbl Lck HTRF IC50 relative to Cbl-b Lck HTRF IC50
Chain of c-Cbl (P22681 47-435): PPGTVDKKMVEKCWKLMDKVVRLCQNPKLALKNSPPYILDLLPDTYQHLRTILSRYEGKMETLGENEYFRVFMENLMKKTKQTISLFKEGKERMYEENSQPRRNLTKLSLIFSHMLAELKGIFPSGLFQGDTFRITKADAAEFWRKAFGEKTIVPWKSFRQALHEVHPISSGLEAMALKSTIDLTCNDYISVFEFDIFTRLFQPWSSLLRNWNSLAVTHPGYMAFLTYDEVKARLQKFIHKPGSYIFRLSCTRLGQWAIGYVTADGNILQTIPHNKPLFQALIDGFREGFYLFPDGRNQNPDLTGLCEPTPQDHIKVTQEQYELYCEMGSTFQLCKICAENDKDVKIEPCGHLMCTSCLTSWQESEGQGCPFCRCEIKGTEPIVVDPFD
Experimental: 6 μL of detection mixture was added to all wells and briefly centrifuged before incubating for 20 min at room temperature. […] IC50 was generated using no LCK as the low control and DMSO as the high control.

Chain of Cbl-b (Q13191 40-426): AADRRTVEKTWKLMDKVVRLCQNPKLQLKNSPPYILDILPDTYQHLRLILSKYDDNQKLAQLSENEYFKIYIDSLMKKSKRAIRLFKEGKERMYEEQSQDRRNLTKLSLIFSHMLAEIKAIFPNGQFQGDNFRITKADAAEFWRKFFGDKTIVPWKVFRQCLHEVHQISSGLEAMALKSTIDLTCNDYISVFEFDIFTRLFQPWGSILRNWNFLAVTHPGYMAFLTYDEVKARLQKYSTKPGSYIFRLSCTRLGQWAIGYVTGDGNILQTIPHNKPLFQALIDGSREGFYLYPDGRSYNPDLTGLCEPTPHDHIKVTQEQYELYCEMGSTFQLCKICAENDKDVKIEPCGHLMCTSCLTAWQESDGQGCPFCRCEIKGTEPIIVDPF

SMILES: CCC1(NCc2cc3c(c(C(F)(F)F)c2)CN(c2cccc(C4(Cc5nncn5C)CC(F)(F)C4)c2)C3=O)CCC1 [Compound 369, 2-(3-(3,3-difluoro-1-((4-methyl-4H-1,2,4-triazol-3-yl)methyl)cyclobutyl)phenyl)-6-(((1-ethylcyclobutyl)amino)methyl)-4-(trifluoromethyl)isoindolin-1-one formate]
pIC50 (Cbl-b): 7.77
pIC50 (c-Cbl): 7.82

SMILES: Cn1cnnc1[C@H](F)C1(c2cccc(N3Cc4c(cc(CN5CCC6(CC6)C5)cc4C(F)(F)F)C3=O)c2)CC1 [Compound 27, (R)-6-(5-azaspiro[2.4]heptan-5-ylmethyl)-2-(3-(1-(fluoro(4-methyl-4H-1,2,4-triazol-3-yl)methyl)cyclopropyl)phenyl)-4-(trifluoromethyl)isoindolin-1-one]
pIC50 (Cbl-b): 7.41
pIC50 (c-Cbl): 7.21

SMILES: CC[C@H](C)NCc1cc2c(c(C(F)(F)F)c1)CN(c1cccc(C3(Cc4nncn4C)CC(F)(F)C3)c1)C2=O [Compound 371, (S)-6-((sec-butylamino)methyl)-2-(3-(3,3-difluoro-1-((4-methyl-4H-1,2,4-triazol-3-yl)methyl)cyclobutyl)phenyl)-4-(trifluoromethyl)isoindolin-1-one]
pIC50 (Cbl-b): 7.82
pIC50 (c-Cbl): 7.85
(fold-selectivity) (c-Cbl): (0.94x)

SMILES: Cn1cnnc1CC1(c2cc(OCc3ccccc3)nc(N3Cc4c(cc(CNC5(C)CCC5)cc4C(F)(F)F)C3=O)c2)CCC1 [Compound 360, 2-(6-(benzyloxy)-4-(1-((4-methyl-4H-1,2,4-triazol-3-yl)methyl)cyclobutyl)pyridin-2-yl)-6-(((1-methylcyclobutyl)amino)methyl)-4-(trifluoromethyl)isoindolin-1-one]
pIC50 (Cbl-b): 7.70
pIC50 (c-Cbl): 7.77
(fold-selectivity) (c-Cbl): (0.86x)

SMILES: CC[C@H]1CCC[C@@H](c2cc3c(c(C(F)(F)F)c2)CN(c2cccc(C4(Cc5nncn5C)CC(F)(F)C4)c2)C3=O)N1 (single isomer, unassigned) [Compound 273]
pIC50 (Cbl-b): 7.29
pIC50 (c-Cbl): 7.11
(fold-selectivity) (c-Cbl): (1.5x)

SMILES: CC(C)[C@H]1CN(C)CCN1Cc1cc2c(c(C(F)(F)F)c1)CN(c1cccc(C3([C@H](F)c4nncn4C(F)F)COC3)c1)C2=O [Compound 268, 2-(3-(3-((S)-(4-(difluoromethyl)-4H-1,2,4-triazol-3-yl)fluoromethyl)oxetan-3-yl)phenyl)-6-(((S)-2-isopropyl-4-methylpiperazin-1-yl)methyl)-4-(trifluoromethyl)isoindolin-1-one]
pIC50 (Cbl-b): 7.80
pIC50 (c-Cbl): 7.96
(fold-selectivity) (c-Cbl): (0.68x)

SMILES: CC(C)[C@H]1CN(CCF)CCN1Cc1cc2c(c(C(F)(F)F)c1)CN(c1cccc(C3([C@@H](F)c4nncn4C)COC3)c1)C2=O [Compound 197, 2-(3-(3-((R)-fluoro(4-methyl-4H-1,2,4-triazol-3-yl)methyl)oxetan-3-yl)phenyl)-6-(((S)-4-(2-fluoroethyl)-2-isopropylpiperazin-1-yl)methyl)-4-(trifluoromethyl)isoindolin-1-one]
pIC50 (Cbl-b): 8.10
pIC50 (c-Cbl): 7.89
(fold-selectivity) (c-Cbl): 1.6x

SMILES: Cn1cnnc1[C@H](F)C1(c2cccc(N3Cc4c(cccc4C(F)F)C3=O)c2)COC1 [Compound 59, (R)-4-(difluoromethyl)-2-(3-(3-(fluoro(4-methyl-4H-1,2,4-triazol-3-yl)methyl)oxetan-3-yl)phenyl)isoindolin-1-one]
pIC50 (Cbl-b): 6.23
pIC50 (c-Cbl): 5.89
(fold-selectivity) (c-Cbl): 2.1x

SMILES: Cn1cnnc1[C@@H](F)[C@](C)(F)c1cccc(N2Cc3c(cc(CN4CCC5(CC5)C4)cc3C(F)(F)F)C2=O)c1 [Compound 129, 6-(5-azaspiro[2.4]heptan-5-ylmethyl)-2-(3-((1R,2R)-1,2-difluoro-1-(4-methyl-4H-1,2,4-triazol-3-yl)propan-2-yl)phenyl)-4-(trifluoromethyl)isoindolin-1-one]
(fold-selectivity) (c-Cbl): 3.6x

Next, values leading:

pIC50 (Cbl-b): 7.51
pIC50 (c-Cbl): 7.39
(fold-selectivity) (c-Cbl): (1.3x)
SMILES: Cn1cnnc1CC1(c2cccc(N3Cc4c(cc(CNC5(C)CCC5)cc4C(F)(F)F)C3=O)c2)CS(=O)(=O)C1 [Compound 242, 2-(3-(3-((4-methyl-4H-1,2,4-triazol-3-yl)methyl)-1,1-dioxido-thietan-3-yl)phenyl)-6-(((1-methylcyclobutyl)amino)methyl)-4-(trifluoromethyl)isoindolin-1-one]

pIC50 (Cbl-b): 7.92
pIC50 (c-Cbl): 8.04
(fold-selectivity) (c-Cbl): (0.78x)
SMILES: CC(C)CNCc1cc2c(c(C(F)(F)F)c1)CN(c1cccc(C3([C@H](F)c4nncn4C)CC(F)(F)C3)c1)C2=O [Compound 452, (S)-2-(3-(3,3-difluoro-1-(fluoro(4-methyl-4H-1,2,4-triazol-3-yl)methyl)cyclobutyl)phenyl)-6-((isobutylamino)methyl)-4-(trifluoromethyl)isoindolin-1-one]

pIC50 (Cbl-b): 6.70
pIC50 (c-Cbl): 6.44
(fold-selectivity) (c-Cbl): 1.8x
SMILES: Cn1cnnc1[C@@H](F)C1(c2cccc(N3Cc4c(cc(CC5CNC5)cc4C(F)(F)F)C3=O)c2)COC1 [Compound 58, (S)-6-(azetidin-3-ylmethyl)-2-(3-(3-(fluoro(4-methyl-4H-1,2,4-triazol-3-yl)methyl)oxetan-3-yl)phenyl)-4-(trifluoromethyl)isoindolin-1-one]

pIC50 (Cbl-b): 7.47
pIC50 (c-Cbl): 7.49
(fold-selectivity) (c-Cbl): (0.97x)
SMILES: Cn1cnnc1CC1(c2cccc(N3Cc4c(cc(CN5CCNC[C@H]5C5CC5)cc4C(F)(F)F)C3=O)c2)CC(F)(F)C1 [Compound 436, (R)-6-((2-cyclopropylpiperazin-1-yl)methyl)-2-(3-(3,3-difluoro-1-((4-methyl-4H-1,2,4-triazol-3-yl)methyl)cyclobutyl)phenyl)-4-(trifluoromethyl)isoindolin-1-one]

pIC50 (Cbl-b): 7.72
pIC50 (c-Cbl): 7.72
(fold-selectivity) (c-Cbl): (1.0x)
SMILES: Cn1cnnc1CC1(c2cccc(N3Cc4c(cc([C@H](N)C5CC5)cc4C(F)(F)F)C3=O)c2)CC(F)(F)C1 [Compound 435, (R)-6-(amino(cyclopropyl)methyl)-2-(3-(3,3-difluoro-1-((4-methyl-4H-1,2,4-triazol-3-yl)methyl)cyclobutyl)phenyl)-4-(trifluoromethyl)isoindolin-1-one]

pIC50 (Cbl-b): 7.92
pIC50 (c-Cbl): 7.96
(fold-selectivity) (c-Cbl): (0.89x)
SMILES: Cn1cnnc1C[C@]1(c2cccc(N3Cc4c(cc(CNC5(C)CCC5)cc4C(F)(F)F)C3=O)c2)C[C@H](C#N)C1 [Compound 467, (1r,3r)-3-((4-methyl-4H-1,2,4-triazol-3-yl)methyl)-3-(3-(6-(((1-methylcyclobutyl)amino)methyl)-1-oxo-4-(trifluoromethyl)isoindolin-2-yl)phenyl)cyclobutanecarbonitrile]

pIC50 (Cbl-b): 7.41
pIC50 (c-Cbl): 7.31
(fold-selectivity) (c-Cbl): (1.3x)
SMILES: Cc1cnnn1CC1(c2cccc(N3Cc4c(cc(CNC5(C)CCC5)cc4C(F)F)C3=O)c2)COC1 [Compound 305, 4-(difluoromethyl)-2-(3-(3-((5-methyl-1H-1,2,3-triazol-1-yl)methyl)oxetan-3-yl)phenyl)-6-(((1-methylcyclobutyl)amino)methyl) isoindolin-1-one]

pIC50 (Cbl-b): 7.68
pIC50 (c-Cbl): 7.29
(fold-selectivity) (c-Cbl): (2.4x)
SMILES: Cn1cnc(CNc2cc(C3(Cc4nncn4C)CCC3)cc(N3Cc4c(cc(CNC5(C)CCC5)cc4C(F)(F)F)C3=O)n2)c1 [Compound 320, 2-(6-(((1-methyl-1H-imidazol-4-yl)methyl)amino)-4-(1-((4-methyl-4H-1,2,4-triazol-3-yl)methyl)cyclobutyl)pyridin-2-yl)-6-(((1-methylcyclobutyl)amino)methyl)-4-(trifluoromethyl)isoindolin-1-one]

(fold-selectivity) (c-Cbl): (0.70x)
SMILES: Cn1cnnc1[C@H](F)C1(c2cccc(N3Cc4c(Cl)cc(CNC5(C)CCC5)cc4C3=O)c2)COC1 [Compound 470, (R)-4-chloro-2-(3-(3-(fluoro(4-methyl-4H-1,2,4-triazol-3-yl)methyl)oxetan-3-yl)phenyl)-6-(((1-methylcyclobutyl)amino)methyl) isoindolin-1-one]

(fold-selectivity) (c-Cbl): 3.3x
SMILES: Cn1cnnc1[C@@H](F)[C@@](C)(F)c1cccc(N2Cc3c(cc(CN4CCC5(CC5)C4)cc3C(F)(F)F)C2=O)c1 [Compound 130, 6-(5-azaspiro[2.4]heptan-5-ylmethyl)-2-(3-((1R,2S)-1,2-difluoro-1-(4-methyl-4H-1,2,4-triazol-3-yl)propan-2-yl)phenyl)-4-(trifluoromethyl)isoindolin-1-one]

(fold-selectivity) (c-Cbl): 3.4x
SMILES: Cn1cnnc1[C@H](F)[C@@](C)(F)c1cccc(N2Cc3c(cc(CN4CCC5(CC5)C4)cc3C(F)(F)F)C2=O)c1 [Compound 128, 6-(5-azaspiro[2.4]heptan-5-ylmethyl)-2-(3-((1S,2S)-1,2-difluoro-1-(4-methyl-4H-1,2,4-triazol-3-yl)propan-2-yl)phenyl)-4-(trifluoromethyl)isoindolin-1-one]
